Results: patent USRE46630E1, “Substituted 4-pyridones and their use as inhibitors of neutrophil elastase activity” (Boehringer Ingelheim International GmbH, priority 2012, dated 2017)

target: T1, Human neutrophil elastase (Homo sapiens, UniProt P08246); test: Human Neutrophil Elastase Assay; assay type: biochemical; details: Neutrophil Elastase assay; substrate MeOSuc-Ala-Ala-Pro-Val-AMC 250 μM; 15 min preincubation, 60 min incubation at room temperature; pH 7.5
T1 construct: purchased Calbiochem 324681
T1 sequence (P08246 30-267): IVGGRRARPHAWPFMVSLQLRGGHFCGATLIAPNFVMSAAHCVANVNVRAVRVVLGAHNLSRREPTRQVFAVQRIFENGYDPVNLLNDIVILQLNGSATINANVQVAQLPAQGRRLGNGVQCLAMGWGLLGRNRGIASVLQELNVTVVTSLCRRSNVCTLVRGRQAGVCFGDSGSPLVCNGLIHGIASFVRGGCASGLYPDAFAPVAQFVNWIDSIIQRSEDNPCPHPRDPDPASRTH
Procedure: Human Neutrophil Elastase Assay
All other materials were of the highest grade commercially available.
The following buffers were used: Compound buffer: 100 mM Tris, 500 mM NaCl, adjusted to pH 7.5; Assay buffer: 100 mM Tris, 500 mM NaCl, adjusted to pH 7.5, containing 0.01% BSA.
Assay conditions: Test compounds were prediluted in DMSO and subsequently in compound buffer (5% DMSO final). […] After inactivation of the enzyme, fluorescence intensities were measured at 380 nm excitation and 460 nm emission wavelengths.
Each plate contains wells with a high value control (DMSO+enzyme+substrate) and wells with a low value control (DMSO+inactivated enzyme+substrate). […] Means of low values were taken as 0%, means of high values as 100%.

Row | SMILES | IC50 [nM]
1 | Cc1c(-c2cccc(C(F)(F)F)c2)c(=O)c(C(=O)NCC(O)CO)cn1Cc1ccc(C#N)cc1 (stereo not shown) [Example 1.17, 1-(4-Cyano-benzyl)-6-methyl-4-oxo-5-(3-trifluoromethyl-phenyl)-1,4-dihydro-pyridine-3-carboxylic acid (2,3-dihydroxy-propyl)-amide] | 21
2 | Cc1c(-c2cccc(C(F)(F)F)c2)c(=O)c(C(=O)NCc2ccc(S(C)(=O)=O)cc2)cn1Cc1ccc(C#N)cc1 [Example 2.12] | < 1
3 | Cc1c(-c2cccc(C(F)(F)F)c2)c(=O)c(C(=O)NCCCO)cn1Cc1ccc(C#N)cc1 [Example 1.9] | 8.4
4 | CCNC(=O)c1cn(Cc2ccc(C#N)cc2)c(C)c(-c2cccc(C(F)(F)F)c2)c1=O [Example 1.51] | 10.7
5 | Cc1c(-c2cccc(C(F)(F)F)c2)c(=O)c(C(=O)NCc2ccccn2)cn1Cc1ccc(C#N)cc1 [Example 1.48] | 4.1
6 | Cc1c(-c2cccc(C(F)(F)F)c2)c(=O)c(C(=O)NCc2ccc(=O)[nH]c2)cn1Cc1ccc(C#N)cc1 [Example 1.42] | 5.2
7 | CNC(=O)c1cn(Cc2ccc(C#N)cc2)c(C)c(-c2cccc(C(F)(F)F)c2)c1=O [Example 1.11] | 14.4
8 | Cc1c(-c2cccc(C(F)(F)F)c2)c(=O)c(C(=O)NCCCO)cn1Cc1ccc(C#N)cc1S(C)(=O)=O [Example 23] | 4.4
9 | Cc1c(-c2cccc(C(F)(F)F)c2)c(=O)c(C(=O)NCc2ccc(S(C)(=O)=O)cc2)cn1Cc1ccc(C#N)cn1 [Example 2.3] | < 1
10 | Cc1c(-c2cccc(C(F)(F)F)c2)c(=O)c(C(=O)N[C@H]2CCNC2=O)cn1Cc1ccc(C#N)cc1 [Example 1.58] | 8.1
11 | Cc1c(-c2cccc(C(F)(F)F)c2)c(=O)c(C(=O)NCc2ccn(C)n2)cn1Cc1ccc(C#N)cc1 [Example 1.34] | 8.9
12 | Cc1c(-c2cccc(C(F)(F)F)c2)c(=O)c(C(=O)NCCc2ccccn2)cn1Cc1ccc(C#N)cc1 [Example 1.43] | 8.9
13 | Cc1c(-c2cccc(C(F)(F)F)c2)c(=O)c(C(=O)N[C@H]2CC[C@H](O)CC2)cn1Cc1ccc(C#N)cc1 [Example 1.27] | 46.4
14 | CNC(=O)c1cn(Cc2ccc(C#N)cn2)c(C)c(-c2ccnc(C(F)(F)F)c2)c1=O [Example 44, 1-(5-Cyano-pyridin-2-ylmethyl)-2-methyl-4-oxo-2′-trifluoromethyl-1,4-dihydro-[3,4′]bipyridinyl-5-carboxylic acid methylamide] | 94.6
15 | Cc1noc(CNC(=O)c2cn(Cc3ccc(C#N)cc3S(C)(=O)=O)c(C)c(-c3cccc(C(F)(F)F)c3)c2=O)n1 [Example 24] | 4.8
16 | Cc1c(-c2cccc(C(F)(F)F)c2)c(=O)c(C(=O)NCCc2cccnc2)cn1Cc1ccc(C#N)cc1 [Example 1.44] | 7.9
17 | Cc1c(-c2cccc(C(F)(F)F)c2)c(=O)c(C(=O)NC2CNC(=O)C2)cn1Cc1ccc(C#N)cc1 (stereo not shown) [Example 1.12] | 12.1
18 | COCCCNC(=O)c1cn(Cc2ccc(C#N)cc2)c(C)c(-c2cccc(C(F)(F)F)c2)c1=O [Example 1.3] | 13
19 | Cc1c(-c2cccc(C(F)(F)F)c2)c(=O)c(C(=O)NCC2CCN(C)CC2)cn1Cc1ccc(C#N)cc1 [Example 1.2] | 48.3
20 | Cc1nnc(CNC(=O)c2cn(Cc3ccc(C#N)cc3S(C)(=O)=O)c(C)c(-c3cccc(C(F)(F)F)c3)c2=O)o1 [Example 22] | 2.8

Second part, the molecule after the results:

Row | IC50 [nM] | SMILES
21 | 372 | CNC(=O)c1cn(C(C)c2ccc(C#N)cn2)c(C)c(-c2cccc(C(F)F)c2)c1=O (single isomer, unassigned) [Example 16B]
22 | 38.6 | COc1cc(-c2c(C)n(Cc3ccc(C#N)cc3)cc(C(=O)NCc3ccc(S(C)(=O)=O)cc3)c2=O)ccn1 [Example 6.6]
23 | 18.3 | Cc1c(-c2ccnc(C(F)(F)F)c2)c(=O)c(C(=O)NCCCN(C)C)cn1C(C)c1ccc(C#N)cc1 (stereo not shown) [Example 9.11]
24 | 58 | Cc1c(-c2cccc(C(F)(F)F)c2)c(=O)c(C(=O)NCc2ccc(S(C)(=O)=O)cn2)cn1Cc1ccncc1 [Example 4.3]
25 | 2.5 | Cc1c(-c2cncc(C(F)(F)F)c2)c(=O)c(C(=O)NCc2ccc(S(C)(=O)=O)cc2)cn1Cc1ccc(C#N)cc1 [Example 6.13]
26 | 12.8 | Cc1c(-c2ccnc(C(F)(F)F)c2)c(=O)c(C(=O)NCC2CCOCC2)cn1C(C)c1ccc(C#N)cc1 (stereo not shown) [Example 9.28]
27 | 1.4 | Cc1c(-c2cccc(C(F)(F)F)c2)c(=O)c(C(=O)NCc2ccc(S(C)(=O)=O)cn2)cn1Cc1ccc(C#N)nc1 [Example 4.8]
28 | 9.8 | Cc1c(-c2ccnc(C(F)(F)F)c2)c(=O)c(C(=O)NCCF)cn1C(C)c1ccc(C#N)cc1 (stereo not shown) [Example 9.44]
29 | 1.7 | Cc1c(-c2cccc(C(F)F)c2)c(=O)c(C(=O)NCc2ccccn2)cn1C(C)c1ccc(C#N)cc1 (stereo not shown) [Example 8.19]
30 | 1.8 | Cc1c(-c2cccc(C(F)(F)F)c2)c(=O)c(C(=O)NCCCO)cn1C(C)c1ccc(C#N)cc1 (stereo not shown) [Example 7.4]
31 | 1.3 | Cc1c(-c2cccc(C(F)(F)F)c2)c(=O)c(C(=O)NCC[S+](C)[O-])cn1C(C)c1ccc(C#N)cc1 (stereo not shown) [Example 7.8]
32 | 6 | C=CCNC(=O)c1cn(C(C)c2ccc(C#N)cc2)c(C)c(-c2ccnc(C(F)(F)F)c2)c1=O (stereo not shown) [Example 9.51]
33 | 3.6 | Cc1c(-c2cccc(C(F)F)c2)c(=O)c(C(=O)NCc2cnn(C)c2)cn1C(C)c1ccc(C#N)cc1 (stereo not shown) [Example 8.14]
34 | 12.1 | Cc1c(-c2ccnc(C(F)(F)F)c2)c(=O)c(C(=O)NCC2CCCO2)cn1C(C)c1ccc(C#N)cc1 (stereo not shown) [Example 9.26]
35 | 16.3 | Cc1c(-c2ccnc(C(F)(F)F)c2)c(=O)c(C(=O)NCC2CC3CCC2O3)cn1C(C)c1ccc(C#N)cc1 (stereo not shown) [Example 9.30]
36 | 7 | Cc1nnc(CNC(=O)c2cn(C(C)c3ccc(C#N)cc3)c(C)c(-c3ccnc(C(F)(F)F)c3)c2=O)o1 (stereo not shown) [Example 9.7]
37 | 69.4 | Cc1c(-c2ccnc(C(F)(F)F)c2)c(=O)c(C(=O)NC2COCC2O)cn1C(C)c1ccc(C#N)cc1 (stereo not shown) [Example 9.40]
38 | 5.2 | CS(=O)(=O)c1ccc(CNC(=O)c2cn(Cc3ccc(C#N)cc3)cc(-c3cccc(C(F)(F)F)c3)c2=O)nc1 [Example 13.2, 1-(4-Cyano-benzyl)-4-oxo-5-(3-trifluoromethyl-phenyl)-1,4-dihydro-pyridine-3-carboxylic acid (5-methanesulfonyl-pyridin-2-ylmethyl)-amide]
39 | 12 | Cc1c(-c2ccnc(C(F)(F)F)c2)c(=O)c(C(=O)NCC(C)O)cn1C(C)c1ccc(C#N)cc1 (stereo not shown) [Example 9.62]

Row | IC50 [nM] | SMILES
40 | 22.3 | Cc1c(-c2ccnc(C(F)(F)F)c2)c(=O)c(C(=O)NC2CCCCC2O)cn1C(C)c1ccc(C#N)cc1 (stereo not shown) [Example 9.29]
41 | 1.2 | CNC(=O)c1cn(C(C)c2ccc(C#N)cc2)c(C)c(-c2cccc(C(F)F)c2)c1=O (single isomer, unassigned) [Example 8A]
42 | 33.9 | Cc1c(-c2ccnc(C(F)(F)F)c2)c(=O)c(C(=O)NC2CCCC2O)cn1C(C)c1ccc(C#N)cc1 (stereo not shown) [Example 9.36]
43 | 26.4 | CNC(=O)c1cn(Cc2ccc(C#N)cc2OC)c(C)c(-c2cccc(C(F)(F)F)c2)c1=O [Example 3.7]
44 | 14.4 | Cc1c(-c2ccnc(C(F)(F)F)c2)c(=O)c(C(=O)NCC2CCC2)cn1C(C)c1ccc(C#N)cc1 (stereo not shown) [Example 9.23]
45 | 5.4 | CCOCCNC(=O)c1cn(C(C)c2ccc(C#N)cc2)c(C)c(-c2ccnc(C(F)(F)F)c2)c1=O (stereo not shown) [Example 9.58]
46 | 4.2 | CNC(=O)c1cn(C(C)c2ccc(C#N)cn2)c(C)c(-c2cccc(C(F)F)c2)c1=O (single isomer, unassigned) [Example 16A]
47 | 19.3 | CNC(=O)c1cn(Cc2ccc(C#N)c(F)c2)c(C)c(-c2cccc(C(F)(F)F)c2)c1=O [Example 3.5]
48 | 3.9 | Cc1c(-c2ccnc(C(F)(F)F)c2)c(=O)c(C(=O)NCC[S+](C)[O-])cn1C(C)c1ccc(C#N)cc1 (stereo not shown) [Example 9.3]
49 | 3.2 | Cc1c(-c2cccc(C(F)F)c2)c(=O)c(C(=O)NCCCCO)cn1C(C)c1ccc(C#N)cc1 (stereo not shown) [Example 8.13]
50 | 26.2 | Cc1c(-c2ccnc(C(F)(F)F)c2)c(=O)c(C(=O)NC2CCCC2O)cn1C(C)c1ccc(C#N)cc1 (stereo not shown) [Example 9.35]
51 | 18.5 | Cc1c(-c2cccc(C(F)(F)F)c2)c(=O)c(C(N)=O)cn1C(C)c1ccc(C#N)cc1 (stereo not shown) [Example 7.17]
52 | 63.5 | Cc1c(-c2cccc(C(F)(F)F)c2)c(=O)c(C(=O)NCC(C)(C)O)cn1C(C)c1ccc(C#N)cn1 (stereo not shown) [Example 47.11]
53 | 37.5 | Cc1c(-c2ccnc(C(F)(F)F)c2)c(=O)c(C(=O)NCC(C)(C)O)cn1C(C)c1ccc(C#N)cc1 (stereo not shown) [Example 9.63]
54 | 8.6 | Cc1c(-c2ccnc(C(F)(F)F)c2)c(=O)c(C(=O)NCC(C)O)cn1C(C)c1ccc(C#N)cc1 (stereo not shown) [Example 9.61]
55 | 3.8 | Cc1c(-c2cc(C(F)(F)F)ccn2)c(=O)c(C(=O)NCc2ccc(S(C)(=O)=O)cc2)cn1Cc1ccc(C#N)cc1 [Example 6.12]
56 | 4.3 | Cc1c(-c2cccc(C(F)F)c2)c(=O)c(C(=O)NCCN(C)C)cn1C(C)c1ccc(C#N)cc1 (stereo not shown) [Example 8.11]
57 | 19.5 | Cc1c(-c2cccc(C(F)F)c2)c(=O)c(C(=O)NCc2ccc(S(C)(=O)=O)cc2)cn1C(C)c1ccc(C#N)cc1 (single isomer, unassigned) [Example 11B]
58 | 7.3 | Cc1c(-c2cccc(C(F)(F)F)c2)c(=O)c(C(=O)NC2CCN(C)C2=O)cn1C(C)c1ccc(C#N)cn1 (stereo not shown) [Example 47.12]
